Results taken from patent US20050112573A1, “Method of detecting toxic substance” (priority 2001, published 2005).

System: yeast genes (level of expressed mRNA)
Assay: DNA chip analysis of expressed mRNA of yeast genes after 2 h culture with a toxic chemical substance
Assay type: cell-based, Saccharomyces cerevisiae S288C
Experimental: Yeast (Saccharomyces cerevtisiae S288C (α SUC2mal mel gap2 CUP1)) were cultured at 25° C. on YPD medium (yeast extract 1%, polypepton 2%, glucose 2%). One of toxic chemical substances was added to the cell at logarithmic growth phase, and the cell was further cultured for two hours. Cell was cultured without any chemical substance in the same condition, and was used as control. Concentrations of the chemical substances were defined to inhibit the growth of the yeast but not lead to death.
After the completion of cultivation, the culture was centrifuged to collect the cells. To the cells, sodium acetate buffer (50 mM sodium acetate, 10 mM EDTA, 1% SDS) was added, and the mixture was shaken at 65° C. for five minutes, followed by returning to room temperature, and obtaining the supernatant, which procedure was repeated two times. To the supernatant, ½ amount of a solution of phenol/chloroform was added, and the mixture was centrifuged to give a supernatant, which was added with an equal amount of chloroform, and the mixture was centrifuged to give a supernatant. To the supernatant, an equal amount of isopropanol containing 0.3 M sodium acetate was added, and the mixture was allowed to stand at room temperature for 30 minutes, after which the mixture was centrifuged to give a sediment of the whole RNAs. Seventy % ethanol was added to the sediment, and the mixture was again centrifuged to give a sediment, which was then dried and dissolved in water. mRNA was isolated from the whole RNAs as followings. In view of the fact that a poly A chain is attached to the 3′ terminus of mRNA, a polynucleotide having a poly T structure which was immobilized on the surface of latex beads was used to trap the mRNA, and then the mRNA was washed and eluted with spine column (Oligotex-dT30<Super>mRNA Purification Kit, Takara). Reverse transcription of the mRNA was conducted with a reverse transcriptase (Super Script II Reverse Transcriptase; catalogue No. 18064-014, GibcoBRL) using fluorescence-labeled nucleotides to give cDNAs that were introduced with Cy3-dUTP or Cy5-dUTP during the reverse transcription.
The labeled cDNAs were dissolved in TE buffer (10 mM Tris-HCl/1 mM EDTA, pH8.0), and the solution was dropped on the DNA chip containing the whole genes of yeast (DNA Chip Research Inc. Japan) so that the cDNAs were hybridized on the DNA chip at 65° C. for over 12 hours. The fluoresces intensity of the DNA chip was read with a scanner, and the ratio relative to the fluorescence intensity resulting from the absence of chemical substance was estimated as the following, which is shown in Tables 1 to 9: [formula]
In the Tables, “Intensity” indicated in the rightmost column is a value of the level of expressed mRNA of each gene in control cells as divided by the average level of the expressions of the whole genes.

SMILES: N#Cc1c(Cl)c(Cl)c(Cl)c(C#N)c1Cl [(9), 2,4,5,6-tetrachloro-1,3-benzenedicarbonitrile]
- The level of expressed mRNA in the presence of chemical substance/The level of expressed mRNA in the absence of chemical substance (yeast gene YAR010C): 1.2
- The level of expressed mRNA in the presence of chemical substance/The level of expressed mRNA in the absence of chemical substance (yeast gene YBL005W-A): 0.8
- The level of expressed mRNA in the presence of chemical substance/The level of expressed mRNA in the absence of chemical substance (yeast gene YBL041W): 2.8
- The level of expressed mRNA in the presence of chemical substance/The level of expressed mRNA in the absence of chemical substance (yeast gene YBL043W): 0.5
- The level of expressed mRNA in the presence of chemical substance/The level of expressed mRNA in the absence of chemical substance (yeast gene YBL078C): 12.3
- The level of expressed mRNA in the presence of chemical substance/The level of expressed mRNA in the absence of chemical substance (yeast gene YBR214W): 2.2
- The level of expressed mRNA in the presence of chemical substance/The level of expressed mRNA in the absence of chemical substance (yeast gene YCL020W): 0.9
- The level of expressed mRNA in the presence of chemical substance/The level of expressed mRNA in the absence of chemical substance (yeast gene YCL027W): 0.7
- The level of expressed mRNA in the presence of chemical substance/The level of expressed mRNA in the absence of chemical substance (yeast gene YCR004C): 4.7
- The level of expressed mRNA in the presence of chemical substance/The level of expressed mRNA in the absence of chemical substance (yeast gene YCR071C): 0.6
- The level of expressed mRNA in the presence of chemical substance/The level of expressed mRNA in the absence of chemical substance (yeast gene YCR088W): 0.8
- The level of expressed mRNA in the presence of chemical substance/The level of expressed mRNA in the absence of chemical substance (yeast gene YDL008W): 2.3
- The level of expressed mRNA in the presence of chemical substance/The level of expressed mRNA in the absence of chemical substance (yeast gene YDL238C): 1.7
- The level of expressed mRNA in the presence of chemical substance/The level of expressed mRNA in the absence of chemical substance (yeast gene YDR055W): 0.8
- The level of expressed mRNA in the presence of chemical substance/The level of expressed mRNA in the absence of chemical substance (yeast gene YDR084C): 0.6
- The level of expressed mRNA in the presence of chemical substance/The level of expressed mRNA in the absence of chemical substance (yeast gene YDR085C): 0.4
- The level of expressed mRNA in the presence of chemical substance/The level of expressed mRNA in the absence of chemical substance (yeast gene YDR104C): 2.8
- The level of expressed mRNA in the presence of chemical substance/The level of expressed mRNA in the absence of chemical substance (yeast gene YDR115W): 1.1
- The level of expressed mRNA in the presence of chemical substance/The level of expressed mRNA in the absence of chemical substance (yeast gene YDR259C): 1.0
- The level of expressed mRNA in the presence of chemical substance/The level of expressed mRNA in the absence of chemical substance (yeast gene YDR315C): 1.1
- The level of expressed mRNA in the presence of chemical substance/The level of expressed mRNA in the absence of chemical substance (yeast gene YDR358W): 2.9
- The level of expressed mRNA in the presence of chemical substance/The level of expressed mRNA in the absence of chemical substance (yeast gene YDR388W): 1.4
- The level of expressed mRNA in the presence of chemical substance/The level of expressed mRNA in the absence of chemical substance (yeast gene YDR432W): 0.7
- The level of expressed mRNA in the presence of chemical substance/The level of expressed mRNA in the absence of chemical substance (yeast gene YDR481C): 1.9
- The level of expressed mRNA in the presence of chemical substance/The level of expressed mRNA in the absence of chemical substance (yeast gene YDR510W): 2.7
- The level of expressed mRNA in the presence of chemical substance/The level of expressed mRNA in the absence of chemical substance (yeast gene YEL042W): 0.2
- The level of expressed mRNA in the presence of chemical substance/The level of expressed mRNA in the absence of chemical substance (yeast gene YEL066W): 1.3
- The level of expressed mRNA in the presence of chemical substance/The level of expressed mRNA in the absence of chemical substance (yeast gene YER039C): 1.2
- The level of expressed mRNA in the presence of chemical substance/The level of expressed mRNA in the absence of chemical substance (yeast gene YER107C): 0.4
- The level of expressed mRNA in the presence of chemical substance/The level of expressed mRNA in the absence of chemical substance (yeast gene YER130C): 0.5
- The level of expressed mRNA in the presence of chemical substance/The level of expressed mRNA in the absence of chemical substance (yeast gene YFL028C): 2.7
- The level of expressed mRNA in the presence of chemical substance/The level of expressed mRNA in the absence of chemical substance (yeast gene YFL043C): 2.2
- The level of expressed mRNA in the presence of chemical substance/The level of expressed mRNA in the absence of chemical substance (yeast gene YGL229C): 1.8
- The level of expressed mRNA in the presence of chemical substance/The level of expressed mRNA in the absence of chemical substance (yeast gene YGR136W): 2.1
- The level of expressed mRNA in the presence of chemical substance/The level of expressed mRNA in the absence of chemical substance (yeast gene YGR189C): 0.3
- The level of expressed mRNA in the presence of chemical substance/The level of expressed mRNA in the absence of chemical substance (yeast gene YGR213C): 7.5
- The level of expressed mRNA in the presence of chemical substance/The level of expressed mRNA in the absence of chemical substance (yeast gene YGR257C): 1.5
- The level of expressed mRNA in the presence of chemical substance/The level of expressed mRNA in the absence of chemical substance (yeast gene YHR004C): 1.1
- The level of expressed mRNA in the presence of chemical substance/The level of expressed mRNA in the absence of chemical substance (yeast gene YHR071W): 1.0
- The level of expressed mRNA in the presence of chemical substance/The level of expressed mRNA in the absence of chemical substance (yeast gene YHR139C): 107.2
- The level of expressed mRNA in the presence of chemical substance/The level of expressed mRNA in the absence of chemical substance (yeast gene YHR142W): 0.4
- The level of expressed mRNA in the presence of chemical substance/The level of expressed mRNA in the absence of chemical substance (yeast gene YIL123W): 0.1
- The level of expressed mRNA in the presence of chemical substance/The level of expressed mRNA in the absence of chemical substance (yeast gene YIL140W): 0.7
- The level of expressed mRNA in the presence of chemical substance/The level of expressed mRNA in the absence of chemical substance (yeast gene YJL073W): 1.7
- The level of expressed mRNA in the presence of chemical substance/The level of expressed mRNA in the absence of chemical substance (yeast gene YJL089W): 1.6
- The level of expressed mRNA in the presence of chemical substance/The level of expressed mRNA in the absence of chemical substance (yeast gene YJL116C): 2.4
- The level of expressed mRNA in the presence of chemical substance/The level of expressed mRNA in the absence of chemical substance (yeast gene YJR004C): 0.3
- The level of expressed mRNA in the presence of chemical substance/The level of expressed mRNA in the absence of chemical substance (yeast gene YJR086W): 1.4
- The level of expressed mRNA in the presence of chemical substance/The level of expressed mRNA in the absence of chemical substance (yeast gene YKL008C): 0.3
- The level of expressed mRNA in the presence of chemical substance/The level of expressed mRNA in the absence of chemical substance (yeast gene YKL013C): 1.5
